What was measured:
Experiment in all cases: In vitro antibacterial evaluation: minimum inhibitory concentration (MIC), broth dilution method
Type in all cases: cell-based
Enterococcus sp. = system: Enterococcus sp.
Summary of the method: (§1)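 NCCLS M7-A2 broth dilution with Mueller-Hinton II, testing 64-0.06 μg/mL antibiotic against 5×10^5 CFU/mL inocula. Test strains include recent methicillin-, penicillin- or vancomycin-resistant clinical isolates. MIC is the lowest concentration preventing growth.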

Escherichia coli [1] = system: Escherichia coli
Summary of the method: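 Broth dilution per NCCLS M7-A2 in Muller-Hinton II […], inoculum 5×10^5 CFU/mL, antibiotic tested over 64-0.06 μg/mL. MIC is taken as the lowest concentration that inhibits growth. Panel includes recent clinical isolates resistant to methicillin, penicillin and/or vancomycin.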

Streptococcus sp. = conditions: 18 hours at 35° C.
Summary of the method: as §1

Staphylococcus sp. = conditions: 18 hours at 35° C.
Summary of the method: as §1

Escherichia coli [2] = system: Escherichia coli; remark: listed apart in the source
[3] = Enterococcus faecalis (ATCC 29212)
[4] = Enterococcus faecalis (GC 2242), 18 hours at 35° C.
[5] = Enterococcus faecalis (GC 4552), 18 hours at 35° C.
[6] = Enterococcus faecalis (GC 4553)
[7] = Enterococcus faecalis (GC 4554)
[8] = broth dilution, 18 hours at 35° C., strain ATCC 29212
[9] = broth dilution, 18 hours at 35° C., strain GC 2242
[10] = broth dilution, 18 hours at 35° C., strain GC 2243
[11] = broth dilution, 18 hours at 35° C., strain GC 4552
[12] = broth dilution, 18 hours at 35° C., strain GC 4553
[13] = broth dilution, 18 hours at 35° C., strain GC 4554
[14] = broth dilution, 18 hours at 35° C., strain GC 4556
[15] = broth dilution, 18 hours at 35° C., strain GC 4557
[16] = broth dilution, 18 hours at 35° C., strain GC 4558
[17] = Streptococcus agalactiae (GC 4564)
[18] = Streptococcus pneumoniae (GC 4565)
[19] = Streptococcus pyogenes (ID-3187)
[20] = Staphylococcus aureus (ATCC 29213)
[21] = Staphylococcus aureus (GC 1131)
[22] = Staphylococcus aureus (GC 4541)
[23] = Staphylococcus aureus (GC 4542)
[24] = Staphylococcus aureus (GC 4544)
[25] = Staphylococcus aureus (GC 4545)
[26] = broth dilution, strain ATCC 29213

For “α-O-[(Cyclohexylamino)carbonyl]-cyclo[glycyl-β-methylphenylalanyl-O-(4-O-hexopyranosylhexopyranosyl)tyrosyl-3-(2-iminoimidazolidin-4-yl)seryl-3-(3-hexopyranosyl-2-iminoimidazolidin-4-yl)serylseryl] [Example 256]”, the “MIC Enterococcus avium (GC 4558)” value (Enterococcus sp.; Enterococcus avium (GC 4558)) was over 64 µg/mL, the “MIC Enterococcus faecalis (ATCC 29212)” value (Enterococcus sp.; [3]) was over 64 µg/mL and the “MIC Enterococcus faecalis (GC 2242)” value (Enterococcus sp.; [4]) was over 64 µg/mL. The “MIC Enterococcus faecalis (GC 4552)” value (Enterococcus sp.; [5]) was over 64 µg/mL, the “MIC Enterococcus faecalis (GC 4553)” value (Enterococcus sp.; [6]) was over 64 µg/mL and the “MIC Enterococcus faecalis (GC 4554)” value (Enterococcus sp.; [7]) was over 64 µg/mL. The “MIC Enterococcus faecium (GC 2243)” value (Enterococcus sp.; Enterococcus faecium (GC 2243)) was over 64 µg/mL, the “MIC Enterococcus faecium (GC 4556)” value (Enterococcus sp.; Enterococcus faecium (GC 4556)) was over 64 µg/mL and the “MIC Enterococcus faecium (GC 4557)” value (Enterococcus sp.; Enterococcus faecium (GC 4557)) was 64 µg/mL. For the same substance, the “MIC Enterococcus faecalis (ATCC 29212)” value (Enterococcus sp.; [8]) was over 64 µg/mL, the “MIC Enterococcus faecalis (GC 2242)” value (Enterococcus sp.; [9]) was over 64 µg/mL and the “MIC Enterococcus faecium (GC 2243)” value (Enterococcus sp.; [10]) was over 64 µg/mL. The “MIC Enterococcus faecalis (GC 4552)” value (Enterococcus sp.; [11]) was over 64 µg/mL, the “MIC Enterococcus faecalis (GC 4553)” value (Enterococcus sp.; [12]) was over 64 µg/mL and the “MIC Enterococcus faecalis (GC 4554)” value (Enterococcus sp.; [13]) was over 64 µg/mL. The “MIC Enterococcus faecium (GC 4556)” value (Enterococcus sp.; [14]) was over 64 µg/mL, the “MIC Enterococcus faecium (GC 4557)” value (Enterococcus sp.; [15]) was 64 µg/mL and the “MIC Enterococcus avium (GC 4558)” value (Enterococcus sp.; [16]) was over 64 µg/mL. The “MIC Escherichia coli (GC 4559)” value (Escherichia coli [1]) was over 64 µg/mL, the “MIC Escherichia coli (GC 4560)” value (Escherichia coli [1]) was 32 µg/mL and the “MIC Streptococcus agalactiae (GC 4564)” value (Streptococcus sp.; [17]) was over 64 µg/mL. For the same substance, the “MIC Streptococcus pneumoniae (GC 4565)” value (Streptococcus sp.; [18]) was over 64 µg/mL, the “MIC Streptococcus pyogenes (ID-3187)” value (Streptococcus sp.; [19]) was 64 µg/mL and the “MIC Streptococcus agalactiae (GC 4564)” value (Streptococcus sp.; broth dilution, strain GC 4564) was over 64 µg/mL. The “MIC Streptococcus pneumoniae (GC 4565)” value (Streptococcus sp.; broth dilution, strain GC 4565) was over 64 µg/mL, the “MIC Streptococcus pyogenes (ID-3187)” value (Streptococcus sp.; broth dilution, strain ID-3187) was 64 µg/mL and the “MIC Coagulase Negative Staphylococcus (GC 4547)” value (Staphylococcus sp.) was over 64 µg/mL. For the same substance, the “MIC Coagulase Negative Staphylococcus (GC 4548)” value (Staphylococcus sp.) was over 64 µg/mL, the “MIC Coagulase Negative Staphylococcus (GC 4549)” value (Staphylococcus sp.) was over 64 µg/mL and the “MIC Coagulase Negative Staphylococcus (GC 4551)” value (Staphylococcus sp.) was over 64 µg/mL. The “MIC Coagulase Negative Staphylococcus (ID-3941)” value (Staphylococcus sp.) was over 64 µg/mL, the “MIC Staphylococcus aureus (ATCC 29213)” value (Staphylococcus sp.; [20]) was over 64 µg/mL and the “MIC Staphylococcus aureus (GC 1131)” value (Staphylococcus sp.; [21]) was over 64 µg/mL. The “MIC Staphylococcus aureus (GC 4541)” value (Staphylococcus sp.; [22]) was over 64 µg/mL, the “MIC Staphylococcus aureus (GC 4542)” value (Staphylococcus sp.; [23]) was over 64 µg/mL and the “MIC Staphylococcus aureus (GC 4544)” value (Staphylococcus sp.; [24]) was over 64 µg/mL. For the same substance, the “MIC Staphylococcus aureus (GC 4545)” value (Staphylococcus sp.; [25]) was over 64 µg/mL, the “MIC Staphylococcus aureus-SMITH (GC 4543)” value (Staphylococcus sp.) was over 64 µg/mL and the “MIC Staphylococcus haemolyticus (GC 4546)” value (Staphylococcus sp.) was over 64 µg/mL. For the same substance, the “MIC Staphylococcus aureus (ATCC 29213)” value (Staphylococcus sp.; [26]) was over 64 µg/mL, the “MIC Staphylococcus aureus (GC 1131)” value (Staphylococcus sp.; broth dilution, strain GC 1131) was over 64 µg/mL and the “MIC Staphylococcus aureus (GC 4541)” value (Staphylococcus sp.; broth dilution, strain GC 4541) was over 64 µg/mL. The “MIC Staphylococcus aureus (GC 4542)” value (Staphylococcus sp.; broth dilution, strain GC 4542) was over 64 µg/mL, the “MIC Staphylococcus aureus (GC 4544)” value (Staphylococcus sp.; broth dilution, strain GC 4544) was over 64 µg/mL and the “MIC Staphylococcus aureus (GC 4545)” value (Staphylococcus sp.; broth dilution, strain GC 4545) was over 64 µg/mL. The “MIC Escherichia coli (ATCC 25922)” value (Escherichia coli [2]) was over 64 µg/mL.

In the case of “β-O-[(Cyclohexylamino)carbonyl]-cyclo[glycyl-β-methylphenylalanyl-O-(4-O-hexonyranosylhexopyranosyl)tyrosyl-3-(2-iminoimidazolidin-4-yl)seryl-3-(3-hexopyranosyl-2-iminoimidazolidin-4-yl)serylseryl] [Example 256a]”, the “MIC Enterococcus avium (GC 4558)” value (Enterococcus sp.; Enterococcus avium (GC 4558)) is reported as over 64 µg/mL, the “MIC Enterococcus faecalis (ATCC 29212)” value (Enterococcus sp.; [3]) is reported as over 64 µg/mL and the “MIC Enterococcus faecalis (GC 2242)” value (Enterococcus sp.; [4]) is reported as over 64 µg/mL. The “MIC Enterococcus faecalis (GC 4552)” value (Enterococcus sp.; [5]) was over 64 µg/mL, the “MIC Enterococcus faecalis (GC 4553)” value (Enterococcus sp.; [6]) was over 64 µg/mL and the “MIC Enterococcus faecalis (GC 4554)” value (Enterococcus sp.; [7]) was over 64 µg/mL. The “MIC Enterococcus faecium (GC 2243)” value (Enterococcus sp.; Enterococcus faecium (GC 2243)) was over 64 µg/mL, the “MIC Enterococcus faecium (GC 4556)” value (Enterococcus sp.; Enterococcus faecium (GC 4556)) was over 64 µg/mL and the “MIC Enterococcus faecium (GC 4557)” value (Enterococcus sp.; Enterococcus faecium (GC 4557)) was 32 µg/mL. The “MIC Enterococcus faecalis (ATCC 29212)” value (Enterococcus sp.; [8]) was over 64 µg/mL, the “MIC Enterococcus faecalis (GC 2242)” value (Enterococcus sp.; [9]) was over 64 µg/mL and the “MIC Enterococcus faecium (GC 2243)” value (Enterococcus sp.; [10]) was over 64 µg/mL. For the same substance, the “MIC Enterococcus faecalis (GC 4552)” value (Enterococcus sp.; [11]) was over 64 µg/mL, the “MIC Enterococcus faecalis (GC 4553)” value (Enterococcus sp.; [12]) was over 64 µg/mL and the “MIC Enterococcus faecalis (GC 4554)” value (Enterococcus sp.; [13]) was over 64 µg/mL. The “MIC Enterococcus faecium (GC 4556)” value (Enterococcus sp.; [14]) was over 64 µg/mL, the “MIC Enterococcus faecium (GC 4557)” value (Enterococcus sp.; [15]) was 32 µg/mL and the “MIC Enterococcus avium (GC 4558)” value (Enterococcus sp.; [16]) was over 64 µg/mL. The “MIC Escherichia coli (GC 4559)” value (Escherichia coli [1]) was over 64 µg/mL, the “MIC Escherichia coli (GC 4560)” value (Escherichia coli [1]) was 8 µg/mL and the “MIC Streptococcus agalactiae (GC 4564)” value (Streptococcus sp.; [17]) was over 64 µg/mL. The “MIC Streptococcus pneumoniae (GC 4565)” value (Streptococcus sp.; [18]) was 64 µg/mL, the “MIC Streptococcus pyogenes (ID-3187)” value (Streptococcus sp.; [19]) was 64 µg/mL and the “MIC Streptococcus agalactiae (GC 4564)” value (Streptococcus sp.; broth dilution, strain GC 4564) was over 64 µg/mL. For the same substance, the “MIC Streptococcus pneumoniae (GC 4565)” value (Streptococcus sp.; broth dilution, strain GC 4565) was 64 µg/mL, the “MIC Streptococcus pyogenes (ID-3187)” value (Streptococcus sp.; broth dilution, strain ID-3187) was 64 µg/mL and the “MIC Coagulase Negative Staphylococcus (GC 4547)” value (Staphylococcus sp.) was over 64 µg/mL. For the same substance, the “MIC Coagulase Negative Staphylococcus (GC 4548)” value (Staphylococcus sp.) was over 64 µg/mL, the “MIC Coagulase Negative Staphylococcus (GC 4549)” value (Staphylococcus sp.) was over 64 µg/mL and the “MIC Coagulase Negative Staphylococcus (GC 4551)” value (Staphylococcus sp.) was over 64 µg/mL. The “MIC Coagulase Negative Staphylococcus (ID-3941)” value (Staphylococcus sp.) was 64 µg/mL, the “MIC Staphylococcus aureus (ATCC 29213)” value (Staphylococcus sp.; [20]) was over 64 µg/mL and the “MIC Staphylococcus aureus (GC 1131)” value (Staphylococcus sp.; [21]) was over 64 µg/mL. For the same substance, the “MIC Staphylococcus aureus (GC 4541)” value (Staphylococcus sp.; [22]) was over 64 µg/mL, the “MIC Staphylococcus aureus (GC 4542)” value (Staphylococcus sp.; [23]) was over 64 µg/mL and the “MIC Staphylococcus aureus (GC 4544)” value (Staphylococcus sp.; [24]) was over 64 µg/mL. The “MIC Staphylococcus aureus (GC 4545)” value (Staphylococcus sp.; [25]) was over 64 µg/mL, the “MIC Staphylococcus aureus-SMITH (GC 4543)” value (Staphylococcus sp.) was over 64 µg/mL and the “MIC Staphylococcus haemolyticus (GC 4546)” value (Staphylococcus sp.) was over 64 µg/mL. The “MIC Staphylococcus aureus (ATCC 29213)” value (Staphylococcus sp.; [26]) was over 64 µg/mL, the “MIC Staphylococcus aureus (GC 1131)” value (Staphylococcus sp.; broth dilution, strain GC 1131) was over 64 µg/mL and the “MIC Staphylococcus aureus (GC 4541)” value (Staphylococcus sp.; broth dilution, strain GC 4541) was over 64 µg/mL. The “MIC Staphylococcus aureus (GC 4542)” value (Staphylococcus sp.; broth dilution, strain GC 4542) was over 64 µg/mL, the “MIC Staphylococcus aureus (GC 4544)” value (Staphylococcus sp.; broth dilution, strain GC 4544) was over 64 µg/mL and the “MIC Staphylococcus aureus (GC 4545)” value (Staphylococcus sp.; broth dilution, strain GC 4545) was over 64 µg/mL. For the same substance, the “MIC Escherichia coli (ATCC 25922)” value (Escherichia coli [2]) was over 64 µg/mL.
